For assay [1], the target named is T1, GDP-loaded K-Ras (1-169) G12D, C51S, C80L, C118S (Homo sapiens, UniProt P01116, C118S/C51S/C80L/G12D).
T1 construct: GDP-loaded K-Ras (1-169) G12D, C51S, C80L, C118S
Put plainly: K-Ras G12D(GDP) cross-linking assay (conjugate formation, TOF mass spectrometry). Conditions: Table 5; percent covalently modified K-Ras by MS; room temperature; typical compound conc. 2, 10, 25 μM, endpoints 1 and 24 h. The assay is classed as binding. Further details: key: 0: No observed x-linking; +: 0 < x ≤ 20; ++: 20 < x ≤ 40; +++: 40 < x ≤ 100. The procedure:
(§1) Protocol: K-Ras G12D(GDP) Cross-Linking Assay
(§2) Note: while the following protocol outlines the procedure for K-Ras G12D(GDP), a person of skill in the art may substitute other Ras proteins, and may also substitute a non-hydrolyzable GTP analog for GDP to study GTP bound Ras protein.
(§3) GDP-loaded K-Ras (1-169) G12D, C51S, C80L, C118S and GDP-loaded K-Ras (1-169) C51S, C80L, C118S were adjusted to 50 μM in K-Ras assay buffer (12.5 mM HEPES, 75 mM NaCl and 1 mM MgCl2 at pH 7.4). A 5 μL aliquot of each protein solution was added to each well of a 96-well microplate containing 40 μL of assay buffer. Initial compound stocks were prepared in DMSO at 100 times their final assay concentration. Compounds were then diluted 10-fold into K-Ras assay buffer to 10 times their final concentration. A 5 μL aliquot of each diluted compound solution was added to each protein solution in the 96-well microplate to initiate the reaction, which then proceeded at room temperature. Typical final compound concentrations were 2, 10, and 25 μM. At each time point, the reactions were analyzed immediately or quenched with 5 μL of a 5% formic acid solution and kept at 4° C. until analysis. Typical assay endpoints were 1 and 24 h.
(§4) Data collection took place on an Agilent 6230 TOF Mass Spectrometer. Complete reactions were injected onto a C4 reverse-phase column to separate protein from buffer components prior to entering the mass spectrometer. The proteins were eluted from the column by increasing acetonitrile fraction in the mobile phase and fed directly into the mass analyzer. Initial analysis of raw data took place in Agilent MassHunter BioConfirm software and consisted of deconvolution of multiple protein charge states with the maximum entropy algorithm, with a mass step of 1 Da. The heights of all deconvoluted protein masses were exported for further data analysis. The percent modification of each protein was then determined by calculating the peak height of the covalently modified K-Ras species as a percentage of the sum total of K-Ras protein peak height.

For assay [2], the target named is T2, GDP-loaded K-Ras (1-169) C51S, C80L, C118S (Homo sapiens, UniProt P01116, C118S/C51S/C80L).
T2 construct: GDP-loaded K-Ras (1-169) C51S, C80L, C118S
Put plainly: K-Ras WT (GDP) cross-linking assay (conjugate formation, TOF mass spectrometry). The note with it: Table 5; percent covalently modified K-Ras by MS; room temperature; typical compound conc. 2, 10, 25 μM, endpoints 1 and 24 h. The format is binding. Also on record: key: 0: No observed x-linking; +: 0 < x ≤ 20; ++: 20 < x ≤ 40; +++: 40 < x ≤ 100. The procedure: as §1, §2, §3, §4

Turning to `Cc1cccc2cccc(N3CCc4c(nc(OC[C@@H]5CCCN5C)nc4N4CCN(C(=O)[C@@H]5CN5S(C)(=O)=O)[C@@H](CC#N)C4)C3)c12` (some centres unmarked) [Example 132], the “G12D x-linking (%)” value in assay [1] was “+ (0 < x ≤ 20)”. For the same molecule, the “WT x-linking (%)” value in assay [2] is recorded as “+ (0 < x ≤ 20)”.
`O=C([C@@H]1CN1)N1CCN2c3ncnc4cc(-c5c(O)cccc5F)c(Cl)c(c34)OCC[C@@H]2C1` [Example 134]: in assay [1], the “G12D x-linking (%)” value is “+ (0 < x ≤ 20)”. The “WT x-linking (%)” value in assay [2] is reported as “+ (0 < x ≤ 20)”.
With `Cc1ccnc(C(C)C)c1-n1c(=O)nc(N2[C@H](C)CN(C(=O)[C@H]3CN3)C[C@@H]2C)c2cc(F)c(-c3c(O)cccc3F)nc21` [Example 135], the “G12D x-linking (%)” value in assay [1] came out at 0. Further, in assay [2], the “WT x-linking (%)” value amounted to 0.
`Cc1ccnc(C(C)C)c1-n1c(=O)nc(N2[C@@H](C)CN(C(=O)[C@H]3CN3)C[C@@H]2C)c2cc(F)c(-c3c(O)cccc3F)nc21` [Example 136]: the “G12D x-linking (%)” value in assay [1] is on record as “+ (0 < x ≤ 20)”. In assay [2], the “WT x-linking (%)” value is “+ (0 < x ≤ 20)”.
With `Cc1ccnc(C(C)C)c1-n1c(=O)nc(N2[C@H](C)CN(C(=O)[C@H]3CN3)C[C@H]2C)c2cc(F)c(-c3c(O)cccc3F)nc21` [Example 137], the “G12D x-linking (%)” value in assay [1] was 0. Also, the “WT x-linking (%)” value in assay [2] is 0.
Regarding `Cc1ccnc(C(C)C)c1-n1c(=O)nc(N2C[C@@H](C)N(C(=O)[C@H]3CN3)C[C@@H]2C)c2cc(F)c(-c3c(O)cccc3F)nc21` [Example 138], the “G12D x-linking (%)” value in assay [1] is given as 0. The “WT x-linking (%)” value in assay [2] is 0.
Turning to `Cc1ccnc(C(C)C)c1-n1c(=O)nc(N2C[C@H](C)N(C(=O)[C@H]3CN3)C[C@H]2C)c2cc(F)c(-c3c(O)cccc3F)nc21` [Example 139], the “G12D x-linking (%)” value in assay [1] is 0. In assay [2], the “WT x-linking (%)” value is given as 0.
For the molecule `Cc1ccnc(C(C)C)c1-n1c(=O)nc(N2[C@H](C)CN(C(=O)[C@@H]3CN3)C[C@@H]2C)c2cc(F)c(-c3c(O)cccc3F)nc21` [Example 140], in assay [1], the “G12D x-linking (%)” value was 0. Also, the “WT x-linking (%)” value in assay [2] was found to be 0.
Consider `Cc1ccnc(C(C)C)c1-n1c(=O)nc(N2[C@H](C)CN(C(=O)[C@@H]3CN3)C[C@H]2C)c2cc(F)c(-c3c(O)cccc3F)nc21` [Example 142], for which the “G12D x-linking (%)” value in assay [1] is reported as “+ (0 < x ≤ 20)”. Further, the “WT x-linking (%)” value in assay [2] is “+ (0 < x ≤ 20)”.
Consider `Cc1ccnc(C(C)C)c1-n1c(=O)nc(N2C[C@@H](C)N(C(=O)[C@@H]3CN3)C[C@@H]2C)c2cc(F)c(-c3c(O)cccc3F)nc21` [Example 143], for which the “G12D x-linking (%)” value in assay [1] was 0. In addition, in assay [2], the “WT x-linking (%)” value amounted to 0.
For the molecule `Cc1ccnc(C(C)C)c1-n1c(=O)nc(N2C[C@H](C)N(C(=O)[C@@H]3CN3)C[C@H]2C)c2cc(F)c(-c3c(O)cccc3F)nc21` [Example 144], the “G12D x-linking (%)” value in assay [1] came to 0. The “WT x-linking (%)” value in assay [2] is 0.
For the molecule `CO[C@H]1CCCC[C@@H]1N=C=NC1CCN(c2nc(OC[C@@H]3CCCN3C)nc3c2CCN(c2cccc4cccc(C)c24)C3)CC1` [Example 145], the “G12D x-linking (%)” value in assay [1] is on record as “+ (0 < x ≤ 20)”. For the same molecule, the “WT x-linking (%)” value in assay [2] is “+ (0 < x ≤ 20)”.
With `CO[C@@H]1CCCC[C@@H]1N=C=NC1CCN(c2nc(OC[C@@H]3CCCN3C)nc3c2CCN(c2cccc4cccc(C)c24)C3)CC1` [Example 146], the “G12D x-linking (%)” value in assay [1] is listed as “+ (0 < x ≤ 20)”. Besides, in assay [2], the “WT x-linking (%)” value is reported as “+ (0 < x ≤ 20)”.
Turning to `CO[C@@H]1CCCC[C@H]1N=C=NC1CCN(c2nc(OC[C@@H]3CCCN3C)nc3c2CCN(c2cccc4cccc(C)c24)C3)CC1` [Example 147], the “G12D x-linking (%)” value in assay [1] is “+ (0 < x ≤ 20)”. Moreover, the “WT x-linking (%)” value in assay [2] was “+ (0 < x ≤ 20)”.
Consider `CO[C@H]1CCCC[C@H]1N=C=NC1CCN(c2nc(OC[C@@H]3CCCN3C)nc3c2CCN(c2cccc4cccc(C)c24)C3)CC1` [Example 148], for which, in assay [1], the “G12D x-linking (%)” value is on record as “+ (0 < x ≤ 20)”. For the same molecule, the “WT x-linking (%)” value in assay [2] is “+ (0 < x ≤ 20)”.
For `COC1CC1N=C=NC1CCN(c2nc(OC[C@@H]3CCCN3C)nc3c2CCN(c2cccc4cccc(C)c24)C3)CC1` (some centres unmarked) [Example 151], in assay [1], the “G12D x-linking (%)” value was “+++ (40 < x ≤ 100)”. The “WT x-linking (%)” value in assay [2] is on record as “+ (0 < x ≤ 20)”.

The record behind these values is US20230100838A1 (Revolution Medicines, Inc., priority 2019, published 2023).
